Results: patent US11028087B2, “2,6-disubstituted-9-cyclopentyl-9H-purines, use thereof as medicaments, and pharmaceutical compositions” (UNIVERZITA PALACKEHO V OLOMOUCI, priority 2017, dated 2021)

How the values were obtained:
[1] = test system: H1703 (non-small cell lung carcinoma, PDGFRA amplification); experiment: Calcein AM cytotoxicity assay; type: cell-based; conditions: Homo sapiens, NCI-H1703, 72 h, three days
In short: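 Membrane-integrity cytotoxicity readout. Seeding, then next-day dosing at various concentrations (triplicates), then three days' incubation at 37° C in 5% CO2, then 1 h with Calcein AM (final 1 μg/ml) and green fluorescence measurement.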

[2] = test system: Kasumi-1 (acute myeloid leukemia, KIT mutation Asn822Lys); experiment: Calcein AM cytotoxicity assay; type: cell-based; conditions: Homo sapiens, 72 h; Kasumi-1; Calcein AM, three days; read-out: EC50 values (μM) Kasumi-1
In short: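 Kasumi-1 cells were grown in RPMI-1640 + 15% FBS, other lines at 37° C., 5% CO2, and seeded the day before compound addition in triplicates at various concentrations. After 3 days, viability was read with Calcein AM (1 μg/ml final, 1 h) as live-cell fluorescence at ex 485/em 538 nm.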

CDK5/p35 = biological target: T1, CDK5/p35 (Homo sapiens, UniProt Q00535); experiment: Kinase inhibition assay with [γ-33P]ATP; type: biochemical; conditions: histone H1, 0.15 μM ATP
T1 construct: purchased ProQinase GmbH
In short: (§1)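 Radiometric [γ-33P]ATP assay in HEPES pH 7.5 with Mg2+/Mn2+: CDK1/Cyclin B (Sf9-expressed) and purchased CDK5/p35 with 1 mg/mL histone H1 at 15 and 0.15 μM ATP respectively; FLT3 WT and FLT3-ITD with AGLT substrate at 1 μM ATP. Reactions stopped with H3PO4, spotted onto phosphocellulose and washed.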

CDK1/Cyclin B = biological target: T2, CDK1/Cyclin B (Homo sapiens, UniProt P06493); experiment: Kinase inhibition assay with [γ-33P]ATP; type: biochemical; conditions: histone H1, 15 μM ATP
T2 construct: made in house; host or cells: Sf9 insect cells, baculoviral infection
In short: as §1

HL60 = experiment: Calcein AM cytotoxicity assay; type: cell-based; conditions: Homo sapiens, HL-60, 72 h, three days

T2 sequence (P06493 whole entry, species assumed): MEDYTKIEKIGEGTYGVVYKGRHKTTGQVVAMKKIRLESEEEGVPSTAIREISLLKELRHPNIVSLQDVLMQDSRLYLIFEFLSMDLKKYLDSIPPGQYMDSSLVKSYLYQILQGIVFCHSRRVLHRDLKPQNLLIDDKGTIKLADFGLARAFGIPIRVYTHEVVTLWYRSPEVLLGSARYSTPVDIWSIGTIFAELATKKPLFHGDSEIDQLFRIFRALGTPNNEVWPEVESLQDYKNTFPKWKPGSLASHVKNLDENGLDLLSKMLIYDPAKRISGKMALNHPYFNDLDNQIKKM
T2 sequence (P14635 whole entry partner, species assumed): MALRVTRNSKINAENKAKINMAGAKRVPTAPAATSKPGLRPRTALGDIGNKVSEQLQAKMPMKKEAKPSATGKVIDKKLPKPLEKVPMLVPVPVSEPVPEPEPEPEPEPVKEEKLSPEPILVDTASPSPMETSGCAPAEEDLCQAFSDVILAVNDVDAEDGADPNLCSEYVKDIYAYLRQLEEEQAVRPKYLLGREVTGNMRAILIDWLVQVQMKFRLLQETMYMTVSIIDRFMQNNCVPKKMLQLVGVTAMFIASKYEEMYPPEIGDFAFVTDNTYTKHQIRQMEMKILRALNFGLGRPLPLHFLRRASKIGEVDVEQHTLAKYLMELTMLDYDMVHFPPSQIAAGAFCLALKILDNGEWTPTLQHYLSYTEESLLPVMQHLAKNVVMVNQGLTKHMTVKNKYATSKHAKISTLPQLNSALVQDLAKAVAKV
T1 sequence (Q00535 whole entry): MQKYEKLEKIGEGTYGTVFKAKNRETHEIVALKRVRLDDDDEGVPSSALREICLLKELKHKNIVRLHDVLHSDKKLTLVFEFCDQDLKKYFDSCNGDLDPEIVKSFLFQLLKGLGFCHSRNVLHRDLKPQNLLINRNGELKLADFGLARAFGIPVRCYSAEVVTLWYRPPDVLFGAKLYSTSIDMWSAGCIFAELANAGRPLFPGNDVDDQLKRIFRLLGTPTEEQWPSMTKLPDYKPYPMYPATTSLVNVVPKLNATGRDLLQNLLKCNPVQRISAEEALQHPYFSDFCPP
T1 sequence (Q15078 whole entry partner): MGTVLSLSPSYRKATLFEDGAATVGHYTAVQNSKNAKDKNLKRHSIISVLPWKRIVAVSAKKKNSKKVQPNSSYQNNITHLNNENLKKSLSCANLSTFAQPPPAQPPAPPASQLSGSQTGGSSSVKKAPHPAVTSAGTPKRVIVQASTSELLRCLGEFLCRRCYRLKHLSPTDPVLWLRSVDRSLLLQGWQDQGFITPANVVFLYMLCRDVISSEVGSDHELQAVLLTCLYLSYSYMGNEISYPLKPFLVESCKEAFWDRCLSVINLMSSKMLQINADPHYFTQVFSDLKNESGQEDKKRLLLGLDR

| IC50 (CDK5/p35) [µM] | IC50 (CDK1/Cyclin B) [µM] | SMILES | EC50 [1] [µM] | EC50 [2] [µM] | EC50 (HL60) [µM] |
| --- | --- | --- | --- | --- | --- |
|  |  | NCCCCNc1nc(Nc2ccc(N3CCOCC3)cc2)c2ncn(C3CCCC3)c2n1 [Compound 265] | 0.482 |  |  |
|  |  | NCCCCNc1nc(Nc2ccc(N3CC4(COC4)C3)nc2)c2ncn(C3CCCC3)c2n1 [Compound 28] | 0.214 | 0.839 |  |
| 0.065 | 0.045 | NC1CCC(Nc2nc(Nc3ccc(CN4CCNCC4)cc3)c3ncn(C4CCCC4)c3n2)CC1 (stereo not drawn) [Compound 2] |  | 0.481 | 3.51 |
|  |  | CCN1CCN(c2ccc(Nc3nc(NCCCCN)nc4c3ncn4C3CCCC3)cc2)CC1 [Compound 266] | 0.978 |  |  |
| 0.059 | 0.094 | NC1CCC(Nc2nc(Nc3ccc(N4CC5(COC5)C4)cc3)c3ncn(C4CCCC4)c3n2)CC1 (stereo not drawn) [Compound 272] | 0.412 | 0.773 |  |
| 0.359 | 0.082 | NC1CCC(Nc2nc(Nc3ccc(N4CCCC4)cc3)c3ncn(C4CCCC4)c3n2)CC1 (stereo not drawn) [Compound 263] |  | 0.569 | 3.93 |
| 0.058 | 0.034 | CN1CCN(C(=O)c2ccc(Nc3nc(NC4CCC(N)CC4)nc4c3ncn4C3CCCC3)cc2)CC1 (stereo not drawn) [Compound 3] |  | 1.23 | 1.29 |
|  |  | CN1CCN(C(=O)c2ccc(Nc3nc(NCCCCN)nc4c3ncn4C3CCCC3)cc2)CC1 [Compound 27] |  | 0.637 | 0.989 |
| 0.065 | 0.037 | NCCNc1nc(Nc2ccc(CN3CCNCC3)cc2)c2ncn(C3CCCC3)c2n1 [Compound 14] |  | 0.781 | 2.68 |
|  |  | CN(C)CCNc1nc(Nc2ccc(CN3CCOCC3)nc2)c2ncn(C3CCCC3)c2n1 [Compound 172] | 0.35 | 1.5 |  |
| 0.03 | 0.013 | CN1CC2(C1)CN(c1ccc(Nc3nc(NC4CCC(O)CC4)nc4c3ncn4C3CCCC3)cc1)C2 (stereo not drawn) [Compound 7] |  |  |  |
|  |  | NC1CCC(Nc2nc(Nc3ccc(N4CCOCC4)cc3)c3ncn(C4CCCC4)c3n2)CC1 (stereo not drawn) [Compound 1] | 0.189 | 0.944 |  |

| SMILES | IC50 (CDK5/p35) [µM] | IC50 (CDK1/Cyclin B) [µM] | EC50 [1] [µM] | EC50 [2] [µM] | EC50 (HL60) [µM] |
| --- | --- | --- | --- | --- | --- |
| NC1CCC(Nc2nc(Nc3ccc(CN4CCOCC4)cc3)c3ncn(C4CCCC4)c3n2)CC1 (stereo not drawn) [Compound 264] | 0.034 |  |  |  |  |
